Reference: the NIST ThermoML archive (doi:10.1021/je060271a)
Numbers after ± are expanded uncertainties.

Conditions: 323.14 K, Liquid, Vibrating tube method

CCCCCC(=O)OCC(COC(=O)CCCCC)(COC(=O)CCCCC)COC(=O)CCCCC [pentaerythritol tetrahexanoate]
Conditions	mass density [kg/m3]
4906.2 kPa	976 ± 1.2
4926.8 kPa	976.1 ± 1.2
4951.5 kPa	976.2 ± 1.2
4972.1 kPa	976.2 ± 1.2
4997.4 kPa	976.1 ± 1.2
5018.6 kPa	976.1 ± 1.2
5041 kPa	976.1 ± 1.2
5066.8 kPa	976.1 ± 1.2
5088.6 kPa	976.2 ± 1.2
5114.4 kPa	976.3 ± 1.2
5140.5 kPa	976.2 ± 1.2
5162.3 kPa	976.3 ± 1.2
5184.8 kPa	976.5 ± 1.2
5212 kPa	976.3 ± 1.2
5233.9 kPa	976.3 ± 1.2
5261.4 kPa	976.3 ± 1.2
5289.1 kPa	976.3 ± 1.2
5313.2 kPa	976.3 ± 1.2
5337.7 kPa	976.4 ± 1.2
5363.2 kPa	976.4 ± 1.2
5392.1 kPa	976.2 ± 1.2
5421.2 kPa	976.4 ± 1.2
5445 kPa	976.5 ± 1.2
5469.8 kPa	976.5 ± 1.2
5499.7 kPa	976.6 ± 1.2
5530.1 kPa	976.4 ± 1.2
5555.5 kPa	976.6 ± 1.2
5581.3 kPa	976.6 ± 1.2
5611.7 kPa	976.5 ± 1.2
5635.4 kPa	976.5 ± 1.2
5659 kPa	976.7 ± 1.2
5678.8 kPa	976.7 ± 1.2
5695.8 kPa	976.6 ± 1.2
5715.8 kPa	976.7 ± 1.2
5733 kPa	976.7 ± 1.2
5749.7 kPa	976.7 ± 1.2
5769.6 kPa	976.7 ± 1.2
5786.4 kPa	976.7 ± 1.2
5806.6 kPa	976.8 ± 1.2
5823.9 kPa	976.7 ± 1.2
5844.1 kPa	976.7 ± 1.2
5861.2 kPa	976.8 ± 1.2
5882.2 kPa	976.8 ± 1.2
5899.3 kPa	976.7 ± 1.2
5920.4 kPa	976.7 ± 1.2
5941.5 kPa	976.8 ± 1.2
5959.1 kPa	976.8 ± 1.2
5976.7 kPa	976.8 ± 1.2
5997.6 kPa	976.8 ± 1.2
6015.1 kPa	976.8 ± 1.2
6036.5 kPa	977 ± 1.2
6054.3 kPa	977 ± 1.2
6075.8 kPa	976.9 ± 1.2
6094.3 kPa	976.9 ± 1.2
6115.5 kPa	976.8 ± 1.2
6134 kPa	976.9 ± 1.2
6155.6 kPa	976.8 ± 1.2
6178.1 kPa	977.1 ± 1.2
6196.6 kPa	977 ± 1.2
6361.8 kPa	977.1 ± 1.2
6380.8 kPa	977.1 ± 1.2
6403.6 kPa	977.1 ± 1.2
6426.8 kPa	977.2 ± 1.2
6446.5 kPa	977.1 ± 1.2
6465.6 kPa	977.2 ± 1.2
6489.3 kPa	977.1 ± 1.2
6576.9 kPa	977.3 ± 1.2
6597.3 kPa	977.2 ± 1.2
6621.1 kPa	977.3 ± 1.2
6641.5 kPa	977.4 ± 1.2
6666.6 kPa	977.2 ± 1.2
6690.9 kPa	977.4 ± 1.2
6711.7 kPa	977.4 ± 1.2
6732.6 kPa	977.4 ± 1.2
6757.6 kPa	977.4 ± 1.2
6778.7 kPa	977.3 ± 1.2
6803.9 kPa	977.3 ± 1.2
6825.5 kPa	977.5 ± 1.2
6851.4 kPa	977.5 ± 1.2
6873.7 kPa	977.5 ± 1.2
6899.4 kPa	977.5 ± 1.2
6921.3 kPa	977.5 ± 1.2
6947.4 kPa	977.5 ± 1.2
6973.7 kPa	977.5 ± 1.2
6995.9 kPa	977.5 ± 1.2
7019.4 kPa	977.6 ± 1.2
7043.5 kPa	977.5 ± 1.2
7070.3 kPa	977.6 ± 1.2
7093.1 kPa	977.7 ± 1.2
7120.7 kPa	977.6 ± 1.2
7143.5 kPa	977.6 ± 1.2
7170.6 kPa	977.7 ± 1.2
7194.3 kPa	977.8 ± 1.2
7222.1 kPa	977.7 ± 1.2
7250.4 kPa	977.7 ± 1.2
7273.9 kPa	977.8 ± 1.2
7297.5 kPa	977.6 ± 1.2
7326.7 kPa	977.8 ± 1.2
7351.7 kPa	977.8 ± 1.2
7381.1 kPa	977.8 ± 1.2
7460.9 kPa	977.8 ± 1.2
7573.4 kPa	977.9 ± 1.2
7631.6 kPa	977.9 ± 1.2
7784.6 kPa	978.1 ± 1.2
7812.4 kPa	978 ± 1.2
7839.9 kPa	978.1 ± 1.2
7863.3 kPa	978.1 ± 1.2
8237.7 kPa	978.4 ± 1.2
8267.6 kPa	978.3 ± 1.2
8292.8 kPa	978.4 ± 1.2
8323.1 kPa	978.5 ± 1.2
8348.5 kPa	978.4 ± 1.2
8379 kPa	978.5 ± 1.2
8410 kPa	978.4 ± 1.2
8436.3 kPa	978.5 ± 1.2
8466.9 kPa	978.5 ± 1.2
8498.7 kPa	978.5 ± 1.2
8525.2 kPa	978.6 ± 1.2
8557.3 kPa	978.5 ± 1.2
8584.2 kPa	978.6 ± 1.2
8617 kPa	978.7 ± 1.2
8645.1 kPa	978.7 ± 1.2
8678.7 kPa	978.7 ± 1.2
8712.2 kPa	978.7 ± 1.2
8740.6 kPa	978.8 ± 1.2
8775.3 kPa	978.7 ± 1.2
8805.1 kPa	978.8 ± 1.2
8840.3 kPa	978.8 ± 1.2
8877 kPa	978.8 ± 1.2
8907.8 kPa	978.7 ± 1.2
8944 kPa	978.8 ± 1.2
8971.8 kPa	978.9 ± 1.2
8997.6 kPa	978.9 ± 1.2
9020.2 kPa	978.9 ± 1.2
9142.1 kPa	979 ± 1.2
9164.7 kPa	979.1 ± 1.2
9183.3 kPa	978.9 ± 1.2
9204.3 kPa	978.9 ± 1.2
9226.4 kPa	978.9 ± 1.2
9720.5 kPa	979.3 ± 1.2
9812.4 kPa	979.5 ± 1.2
9820.8 kPa	979.4 ± 1.2
9834.6 kPa	979.4 ± 1.2
9846 kPa	979.4 ± 1.2
9859.9 kPa	979.4 ± 1.2
